Common to all, as to format: cell-based
Assay [1] concerns E. coli. Kind of assay: In-vitro antibacterial activity (MIC/MBC), coated 96-well plate. Particulars: 10^5 CFU/mL, 37° C., 24 h, composite as (1c+AgPTS). On the procedure: (§1) Chitin derivatives were first dissolved in methanol (50 mg/mL) and the solutions were serially diluted. 20 μL of the solutions of different concentrations were added into wells of a 96-well plate. The solution was first air-dried and finally dried in vacuum oven to make a film onto the flat-bottom surface of wells of 96-well plate. Each concentration was applied in triplicate for all the samples to study the antibacterial activity. In order to make films on surfaces such as microscopic glass slide, methanolic solutions of polymer (350 μL) were spin coated onto the glass surface by using a spin coater. […] To prepare thin films, mixed solutions (350 μL) obtained from the solutions of these medically relevant polymers in chloroform and methanolic solution of the chitin derivatives (CHCl3: MeOH=9:1) were spin coated onto the glass surface and dried in air. For the biodegradation study, thin films of the chitin derivatives were prepared on microscopic cover glass.
(§2) To determine the antibacterial activity of the synthesized polymers, 200 μL of 10^5 CFU/mL of bacteria were added to the wells of 96-well plate coated with the chitin derivatives with different amounts. […] The data was then subjected to sigmoidal fitting.

For assay [2], the system named is S. aureus. The assay is described as above. Particulars: 10^5 CFU/mL, 37° C., 24 h, composite as (1c+AgPTS). On the procedure: as §1, §2
Assay [3] has as its system S. aureus. Kind of assay: Antibacterial kinetics. The conditions noted are these: coated at 6×MIC; followed upto 360 min.
Procedure: A quantity of 200 μL of a solution containing approximately 4.9×10^5 CFU/mL of S. aureus in nutrient broth and 5.1×10^5 CFU/mL in Luria-Bertani (LB) broth were added, and the plates were kept in an incubated shaker at 37° C. The initial time of addition of the bacteria to the wells was taken as zero, and 10 μL aliquots were withdrawn from each of the wells at set time intervals. These aliquots were added immediately to 90 μL of 0.9% saline. These solutions were further diluted by a factor of 10, and 20 μL of all the dilutions was plated on nutrient or LB agar plates immediately. The plates were incubated at 37° C. for 24 h; and bacterial colonies were counted. A plot of CFU (Log10 CFU/mL) versus time was then plotted.
Antibacterial kinetics assay was performed similarly as mentioned earlier.

As for `Cc1ccc(S(=O)(=O)[O-])cc1.[Ag+]` [AgPTS, silver para-toluene sulfonate], the MIC (in general, the lowest concentration found to suppress growth) is 10 µg/mL in assay [1] and 39 µg/mL in assay [2]. Moreover, the “Time at which S. aureus was killed” value in assay [3] is reported as “bacteriostatic”.

These data come from patent US20180201694A1, “CHITIN DERIVATIVES, METHOD FOR PRODUCTION AND USES THEREOF” (JAWAHARLAL NEHRU CENTRE FOR ADVANCED SCIENTIFIC RESEARCH …, priority 2013, published 2018).
